Experimental data reported in patent US20060148878A1, “Pseudopolymorphic forms of carvedilol” (priority 2001, published 2006).

Tests used:
[1] = active substance resorption / bioavailability of compositions containing carvedilol form IV; assay type: in vivo; conditions: compositions with selected adjuvants, compared with formulations which contain carvedilol forms I or II
[2] = resorption after peroral administration of rapid release carvedilol formulations; assay type: in vivo; conditions: e.g. the commercial formulation
Source text: In the case of the peroral administration of rapid release carvedilol formulations, e.g. the commercial formulation, resorption quotas of up to 80% are achieved, with a considerable part of the resorbed carvedilol being very rapidly metabolized.

[3] = investigations into the gastrointestinal resorption of carvedilol; assay type: in vivo; conditions: compared with resorption in the stomach
[4] = dissolution in molten polyethylene glycol 6,000; assay type: physicochemical; conditions: polyethylene glycol 6,000 melted at about 70° C.; carvedilol form I, II or IV dissolved
Description: Thus, carvedilol form I, II or IV can be dissolved in polyethylene glycol 6,000 which is melted at about 70° C. […] Further, the compositions in accordance with the invention can contain highly dispersed silicon dioxide as an anti-caking agent.

[5] = pH 1

bioavailability [1]	resorption quota [2]	concentration of carvedilol obtained in polyethylene glycol 6,000 [4]	solubility in aqueous media [5]	solubility in the strongly acidic region [5]	SMILES	resorption in the ileum and colon [3]
improved bioavailability	–	–	–	–	COc1ccccc1OCCNCC(O)COc1cccc2[nH]c3ccccc3c12 (racemic) [carvedilol form IV, (±)1-(4-carbazolyloxy)-3-[2-(2-methoxyphenoxy)ethylamino]-2-propanole]	–
–	up to 80%	up to 500 mg/ml	1 mg and 100	very low solubility	COc1ccccc1OCCNCC(O)COc1cccc2[nH]c3ccccc3c12 (racemic) [carvedilol, (±)1-(4-carbazolyloxy)-3-[2-(2-methoxyphenoxy)ethylamino]-2-propanole]	only a fraction of the resorption in the stomach
